Results: ChEMBL document CHEMBL1201862, “PubChem BioAssay data set” (2004)
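1) Cells in 96-well plates. 2) Compound, 48 h, 5 concentrations. 3) Linear interpolation between surrounding doses. 4) Unreached endpoint = highest concentration. GI50: concentration for 50% inhibition of growth.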 Active and inactive are the calls of the source. Cut-off read from the data, not from the text of the source: active = GI50 up to about 1.1 µM and inactive = higher.

Key:
Assay in all cases: NCI anticancer screen, dose series, 48 h
786-0 = system: 786-0
A498 = system: A498
A549 = system: A549
ACHN = system: ACHN
BT-549 = system: BT-549
CAKI-1 = system: CAKI-1
CCRF-CEM = system: CCRF-CEM
COLO 205 = system: COLO 205
DU-145 = system: DU-145
EKVX = system: EKVX
HCC 2998 = system: HCC 2998
HCT-116 = system: HCT-116
HCT-15 = system: HCT-15
HL-60 = system: HL-60
HOP-62 = system: HOP-62
HOP-92 = system: HOP-92
HT-29 = system: HT-29
Hs-578T = system: Hs-578T
IGROV-1 = system: IGROV-1
K562 = system: K562
KM12 = system: KM12
LOX IMVI = system: LOX IMVI
M14 = system: M14
MCF7 = system: MCF7
MDA-MB-231 = system: MDA-MB-231
MDA-MB-435 = system: MDA-MB-435
MDA-N = system: MDA-N
MOLT-4 = system: MOLT-4
Malme-3M = system: Malme-3M
NCI-H226 = system: NCI-H226
NCI-H23 = system: NCI-H23
NCI-H460 = system: NCI-H460
NCI-H522 = system: NCI-H522
NCI/ADR-RES = system: NCI/ADR-RES
OVCAR-3 = system: OVCAR-3
OVCAR-4 = system: OVCAR-4
OVCAR-5 = system: OVCAR-5
OVCAR-8 = system: OVCAR-8
PC-3 = system: PC-3
RPMI-8226 = system: RPMI-8226
RXF 393 = system: RXF 393
SF-268 = system: SF-268
SF-295 = system: SF-295
SF-539 = system: SF-539
SK-MEL-28 = system: SK-MEL-28
SK-MEL-2 = system: SK-MEL-2
SK-MEL-5 = system: SK-MEL-5
SK-OV-3 = system: SK-OV-3
SN12C = system: SN12C
SNB-19 = system: SNB-19
SNB-75 = system: SNB-75
SR = system: SR
SW-620 = system: SW-620
U-251 = system: U-251
UACC-257 = system: UACC-257
UACC-62 = system: UACC-62
UO-31 = system: UO-31
TK-10 = system: TK-10

CCOP(=O)(OCC)/C(C#N)=C/c1cnc(-c2ccccc2)[nH]1
GI50 (786-0): > 100 µM (inactive) | GI50 (A498): > 100 µM (inactive) | GI50 (A549): > 100 µM (inactive) | GI50 (ACHN): > 100 µM (inactive) | GI50 (BT-549): > 100 µM (inactive) | GI50 (CAKI-1): > 100 µM (inactive) | GI50 (CCRF-CEM): > 100 µM (inactive) | GI50 (COLO 205): > 100 µM (inactive) | GI50 (DU-145): > 100 µM (inactive) | GI50 (EKVX): > 100 µM (inactive) | GI50 (HCC 2998): > 100 µM (inactive) | GI50 (HCT-116): > 100 µM (inactive) | GI50 (HCT-15): > 100 µM | GI50 (HL-60): > 100 µM (inactive) | GI50 (HOP-62): > 100 µM (inactive) | GI50 (HOP-92): > 100 µM (inactive) | GI50 (HT-29): > 100 µM (inactive) | GI50 (Hs-578T): > 100 µM (inactive) | GI50 (IGROV-1): > 100 µM (inactive) | GI50 (K562): > 100 µM (inactive) | GI50 (KM12): > 100 µM (inactive) | GI50 (LOX IMVI): > 100 µM (inactive) | GI50 (M14): > 100 µM (inactive) | GI50 (MCF7): > 100 µM (inactive) | GI50 (MDA-MB-231): > 100 µM (inactive) | GI50 (MDA-MB-435): 24.7 µM (inactive) | GI50 (MDA-N): > 100 µM (inactive) | GI50 (MOLT-4): > 100 µM (inactive) | GI50 (Malme-3M): > 100 µM (inactive) | GI50 (NCI-H226): > 100 µM (inactive) | GI50 (NCI-H23): 79.6 µM (inactive) | GI50 (NCI-H460): > 100 µM (inactive) | GI50 (NCI-H522): > 100 µM (inactive) | GI50 (NCI/ADR-RES): > 100 µM (inactive) | GI50 (OVCAR-3): > 100 µM (inactive) | GI50 (OVCAR-4): > 100 µM (inactive) | GI50 (OVCAR-5): > 100 µM (inactive) | GI50 (OVCAR-8): > 100 µM (inactive) | GI50 (PC-3): > 100 µM (inactive) | GI50 (RPMI-8226): > 100 µM (inactive) | GI50 (RXF 393): > 100 µM (inactive) | GI50 (SF-268): > 100 µM (inactive) | GI50 (SF-295): > 100 µM (inactive) | GI50 (SF-539): 0.0887 µM (active) | GI50 (SK-MEL-28): > 100 µM (inactive) | GI50 (SK-MEL-2): > 100 µM (inactive) | GI50 (SK-MEL-5): 82.8 µM (inactive) | GI50 (SK-OV-3): > 100 µM (inactive) | GI50 (SN12C): > 100 µM (inactive) | GI50 (SNB-19): > 100 µM (inactive) | GI50 (SNB-75): > 100 µM (inactive) | GI50 (SR): > 100 µM (inactive) | GI50 (SW-620): > 100 µM (inactive) | GI50 (U-251): > 100 µM (inactive) | GI50 (UACC-257): > 100 µM (inactive) | GI50 (UACC-62): > 100 µM (inactive) | GI50 (UO-31): > 100 µM (inactive)

CCOC(CN(C)C(=O)OCC(Cl)(Cl)Cl)OCC
GI50 (786-0): > 100 µM (inactive) | GI50 (A549): > 100 µM (inactive) | GI50 (ACHN): 99.1 µM (inactive) | GI50 (BT-549): 82.8 µM (inactive) | GI50 (CAKI-1): 34.1 µM (inactive) | GI50 (CCRF-CEM): 56.6 µM (inactive) | GI50 (COLO 205): 27.7 µM (inactive) | GI50 (DU-145): > 100 µM (inactive) | GI50 (EKVX): > 100 µM (inactive) | GI50 (HCC 2998): > 100 µM (inactive) | GI50 (HCT-116): 41.5 µM (inactive) | GI50 (HCT-15): 77.8 µM | GI50 (HL-60): 21.6 µM (inactive) | GI50 (HOP-62): > 100 µM (inactive) | GI50 (HOP-92): 33.9 µM (inactive) | GI50 (HT-29): 79.1 µM (inactive) | GI50 (Hs-578T): 29.7 µM (inactive) | GI50 (IGROV-1): > 100 µM (inactive) | GI50 (K562): 39.9 µM (inactive) | GI50 (KM12): > 100 µM (inactive) | GI50 (LOX IMVI): 57.9 µM (inactive) | GI50 (M14): 69 µM (inactive) | GI50 (MCF7): 67.9 µM (inactive) | GI50 (MDA-MB-231): 25.5 µM (inactive) | GI50 (MDA-MB-435): > 100 µM (inactive) | GI50 (MDA-N): 81.3 µM (inactive) | GI50 (MOLT-4): 29.3 µM (inactive) | GI50 (NCI-H226): 54.6 µM (inactive) | GI50 (NCI-H23): 59.7 µM (inactive) | GI50 (NCI-H460): 61.5 µM (inactive) | GI50 (NCI-H522): 47.8 µM (inactive) | GI50 (NCI/ADR-RES): 39.4 µM (inactive) | GI50 (OVCAR-3): > 100 µM (inactive) | GI50 (OVCAR-4): 77.1 µM (inactive) | GI50 (OVCAR-5): > 100 µM (inactive) | GI50 (OVCAR-8): > 100 µM (inactive) | GI50 (PC-3): 23.3 µM (inactive) | GI50 (RXF 393): 30.7 µM (inactive) | GI50 (SF-268): > 100 µM (inactive) | GI50 (SF-295): > 100 µM (inactive) | GI50 (SF-539): > 100 µM (inactive) | GI50 (SK-MEL-28): > 100 µM (inactive) | GI50 (SK-MEL-5): 33.7 µM (inactive) | GI50 (SK-OV-3): > 100 µM (inactive) | GI50 (SN12C): > 100 µM (inactive) | GI50 (SNB-19): > 100 µM (inactive) | GI50 (SNB-75): 83.4 µM (inactive) | GI50 (SR): 34.2 µM (inactive) | GI50 (SW-620): > 100 µM (inactive) | GI50 (TK-10): > 100 µM (inactive) | GI50 (U-251): 74.8 µM (inactive) | GI50 (UACC-257): 33.4 µM (inactive) | GI50 (UACC-62): > 100 µM (inactive) | GI50 (UO-31): 27.6 µM (inactive)
